Values joined by “and” are separate entries in the source; they are usually repeats but may differ in a detail not shown here. Identical values can stand only once. Like-named read-outs stand apart in the source and are kept apart here. *1 amine or outer side, *2 acyl side, *3 side chain or, on linkers, in order; H or OH if unused. Where a SMILES comes first, the peptide text is derived from it. Bridges are numbered along the chain shown (N, C = ends). [ ]: non-standard residue; d: D form. The star is where a group is joined. hTyr(3S-OH,4S-OH,3'-OSO3H) = N[C@H](C(=O)O)[C@H](O)[C@@H](O)c1ccc(O)c(OS(=O)(=O)O)c1; Orn(4R-OH,5R-OH) = O=C([C@H](C[C@@H](O)[C@@H](O)N[*:3])N[*:1])[*:2]; Pro(3S-OH,4S-Me) = C[C@H]1CN[C@H](C(=O)O)[C@H]1O; X1 = CCCCCOc1ccc(-c2cc(-c3ccc(C(=O)*)cc3)no2)cc1; Gln(3R-OH) = NC(=O)C[C@@H](O)[C@H](N)C(=O)O; Hyp = O=C(O)[C@@H]1C[C@@H](O)CN1
Tests used:
SARS-CoV-2 PL^pro = SARS-CoV-2 PL^pro (Severe acute respiratory syndrome coronavirus 2, UniProt P0DTD1); test: biochemical; settings: for inhibition at 10 µM: read-out: PL^pro % inhibition at 10 µM
SARS-CoV-2 M^pro = SARS-CoV-2 M^pro (Severe acute respiratory syndrome coronavirus 2, UniProt P0DTD1); test: biochemical; settings: for IC50: read-out: M^pro IC50; for inhibition at 10 µM: read-out: M^pro % inhibition at 10 µM
[1] = ReFRAME hits, >5e-6 = not potent enough to determine an IC50, read-out: PL^pro IC50
[2] = ReFRAME hits, >5e-6 = not potent enough to determine an IC50

## CN(C/C=C/C#CC(C)(C)C)Cc1cccc2c(F)cc(F)cc12 [SDZ-880-540]
SARS-CoV-2 PL^pro; ReFRAME hits, 10 µM
  PL^pro % inhibition at 10 µM: 15%
SARS-CoV-2 PL^pro; [1]
  IC50: > 5 µM
SARS-CoV-2 M^pro; ReFRAME hits
  M^pro % inhibition at 10 µM: -1%
SARS-CoV-2 M^pro; [2]
  IC50: > 5 µM

## CC(=O)[O][Hg][c]1cc(C(C)(C)CC(C)(C)C)ccc1O [acetomeroctol]
SARS-CoV-2 PL^pro
  PL^pro % inhibition at 10 µM: 7%
SARS-CoV-2 PL^pro; read-out: PL^pro IC50
  IC50: > 5 µM

## O=c1cc(-c2ccc(O)c(-c3c(O)cc(O)c4c(=O)cc(-c5ccc(O)cc5)oc34)c2)oc2cc(O)cc(O)c12 [amentoflavone]
SARS-CoV-2 PL^pro; ReFRAME hits, 10 µM
  inhibition at 10 µM: 4%
SARS-CoV-2 PL^pro; read-out: PL^pro IC50
  IC50: > 5 µM
SARS-CoV-2 M^pro; ReFRAME hits
  inhibition at 10 µM: 34%

## O=C1OC2(c3ccccc31)c1cc(I)c(O)c(I)c1Oc1c2cc(I)c(O)c1I [erythrosine]
SARS-CoV-2 PL^pro
  IC50: > 5 µM
SARS-CoV-2 PL^pro; ReFRAME hits, 10 µM
  inhibition at 10 µM: 20%
SARS-CoV-2 M^pro; ReFRAME hits
  inhibition at 10 µM: 58%

## CO[C@H]1O[C@H](COS(=O)(=O)[O-])[C@@H](O[C@@H]2O[C@@H](C(=O)[O-])[C@@H](O[C@H]3O[C@H](COS(=O)(=O)[O-])[C@@H](O[C@@H]4O[C@H](C(=O)[O-])[C@@H](O[C@H]5O[C@H](COS(=O)(=O)[O-])[C@@H](O)[C@H](O)[C@H]5NS(=O)(=O)[O-])[C@H](O)[C@H]4O)[C@H](OS(=O)(=O)[O-])[C@H]3NS(=O)(=O)[O-])[C@H](O)[C@H]2OS(=O)(=O)[O-])[C@H](O)[C@H]1NS(=O)(=O)[O-].[Na+].[Na+].[Na+].[Na+].[Na+].[Na+].[Na+].[Na+].[Na+].[Na+] [fondaparinux (sodium), reference compound]
SARS-CoV-2 PL^pro; ReFRAME hits, 10 µM
  PL^pro % inhibition at 10 µM: 23%
SARS-CoV-2 PL^pro; [1]
  IC50: > 5 µM
SARS-CoV-2 M^pro; ReFRAME hits
  M^pro % inhibition at 10 µM: 80%
SARS-CoV-2 M^pro; [2]
  IC50: 2 µM

## Cc1cc(O)c2c(=O)c3c(O)cc(O)c4c5c(O)cc(O)c6c(=O)c7c(O)cc(C)c8c1c2c(c34)c(c78)c65 [hypericin]
SARS-CoV-2 PL^pro; ReFRAME hits, 10 µM
  inhibition at 10 µM: 12%
SARS-CoV-2 PL^pro; read-out: PL^pro IC50
  IC50: > 5 µM

## [Cl][Hg][Cl] [mercuric chloride]
SARS-CoV-2 PL^pro; ReFRAME hits, 10 µM
  PL^pro % inhibition at 10 µM: 16%
SARS-CoV-2 PL^pro; [1]
  IC50: > 5 µM

## CCCCCOc1ccc(-c2cc(-c3ccc(C(=O)N[C@H]4C[C@@H](O)[C@@H](O)NC(=O)[C@@H]5[C@@H](O)[C@@H](C)CN5C(=O)[C@H]([C@H](O)CC(N)=O)NC(=O)[C@H]([C@H](O)[C@@H](O)c5ccc(O)c(OS(=O)(=O)[O-])c5)NC(=O)[C@@H]5C[C@@H](O)CN5C(=O)[C@H]([C@@H](C)O)NC4=O)cc3)no2)cc1.[Na+] [micafungin Sodium, reference compound] (X1-[Orn(4R-OH,5R-OH)]T[Hyp][hTyr(3S-OH,4S-OH,3'-OSO3H)][Gln(3R-OH)][Pro(3S-OH,4S-Me)]; lactam 1-C)
SARS-CoV-2 PL^pro; ReFRAME hits, 10 µM
  PL^pro % inhibition at 10 µM: 24%
SARS-CoV-2 PL^pro; [1]
  IC50: > 5 µM

## O=C(N/N=C/c1ccc([N+](=O)[O-])o1)c1cc([N+](=O)[O-])cc([N+](=O)[O-])c1O [nifursol]
SARS-CoV-2 PL^pro; ReFRAME hits, 10 µM
  inhibition at 10 µM: 23%
SARS-CoV-2 PL^pro; read-out: PL^pro IC50
  IC50: > 5 µM
SARS-CoV-2 M^pro; ReFRAME hits
  inhibition at 10 µM: 43%

## CN1CCCN=C1/C=C/c1cccc(O)c1 [oxantel (pamoate), reference compound]
SARS-CoV-2 PL^pro; [1]
  IC50: > 5 µM

## CN1CCCN=C1/C=C/c1cccc(O)c1.O=C(O)c1cc2ccccc2c(Cc2c(O)c(C(=O)O)cc3ccccc23)c1O [oxantel (pamoate), reference compound]
SARS-CoV-2 PL^pro; ReFRAME hits, 10 µM
  PL^pro % inhibition at 10 µM: 11%

## Cc1cccnc1NS(=O)(=O)c1ccc(C#Cc2ccc(O)c(C(=O)O)c2)cc1 [susalimod]
SARS-CoV-2 PL^pro; ReFRAME hits, 10 µM
  inhibition at 10 µM: 22%
SARS-CoV-2 PL^pro; read-out: PL^pro IC50
  IC50: > 5 µM
SARS-CoV-2 M^pro; ReFRAME hits
  inhibition at 10 µM: 31%
SARS-CoV-2 M^pro
  IC50: > 5 µM

## CC(=O)Oc1ccccc1C(=O)OC1OC(=O)c2ccccc21 (centres unmarked) [talosalate]
SARS-CoV-2 PL^pro; ReFRAME hits, 10 µM
  PL^pro % inhibition at 10 µM: 13%
SARS-CoV-2 PL^pro; [1]
  IC50: > 5 µM
SARS-CoV-2 M^pro; ReFRAME hits
  M^pro % inhibition at 10 µM: 80%
SARS-CoV-2 M^pro; [2]
  IC50: 4 µM

## (-)-epicatechin gallate
SARS-CoV-2 PL^pro; ReFRAME hits, 10 µM
  PL^pro % inhibition at 10 µM: 11%
SARS-CoV-2 PL^pro; [1]
  IC50: > 5 µM

## SENNOSIDES [reference compound]
SARS-CoV-2 PL^pro; ReFRAME hits, 10 µM
  PL^pro % inhibition at 10 µM: 72%
SARS-CoV-2 PL^pro; [1]
  IC50: > 5 µM
SARS-CoV-2 M^pro; ReFRAME hits
  M^pro % inhibition at 10 µM: 92%
SARS-CoV-2 M^pro; [2]
  IC50: 0.7 µM

## [(-)-epicatechin]
SARS-CoV-2 PL^pro; ReFRAME hits, 10 µM
  PL^pro % inhibition at 10 µM: 16%
SARS-CoV-2 PL^pro; [1]
  IC50: > 5 µM

## teicoplanin [reference compound]
SARS-CoV-2 PL^pro; ReFRAME hits, 10 µM
  PL^pro % inhibition at 10 µM: 88% and 81%

Source: paper PMC8225628, “Bispecific repurposed medicines targeting the viral and immunological arms of COVID-19” (Scientific Reports, 2021)
